These compounds were tested on NMNAT2 (assay: NMNAT2-Hibit nano-luciferase activity in stably transfected U87MG cells, various concentrations, 24 hours). Conditions: U87MG cells stably transfected with NMNAT2-Hibit luc plasmid.
Assay type: cell-based
Protocol: Selected compounds were tested in vitro. U87MG cells were stably transfected with NMNAT2-Hibit luc plasmid. Cells were treated with a test compound at various concentrations for 24 hours. Cells were then collected and assayed for nano-luciferase activity.

Compound | E: compound efficacy for NMNAT2 activation (concentration giving >25% increase in NMNAT2 luciferase activity)
O=C(Nc1cc(F)ccc1F)N1CCc2c(c3ccccc3n2Cc2cccc(F)c2)C1 [BC20361] | ++ (“++” >25% increase in NMNAT2 luciferase activity at >1 μM ≤25 μM.)
COc1ccccc1CNC(=O)CCCc1cn(Cc2ccccc2F)c2ccccc12 [BC20127] | ++ (“++” >25% increase in NMNAT2 luciferase activity at >1 μM ≤25 μM.)
O=C(Cn1cc2c3c(cccc31)C(=O)N(Cc1cccc(F)c1)CC2)NCc1cccc(F)c1 [BC20355] | ++ (“++” >25% increase in NMNAT2 luciferase activity at >1 μM ≤25 μM.)
Cc1cccc(CN2CCc3cn(Cc4cccc(F)c4)c4cccc(c34)C2=O)c1 [BC20276] | + (“+” >25% increase in NMNAT2 luciferase activity at >25 μM.)
O=C(Cn1c2c(c3ccccc31)CN(C(=O)NCC1CCCO1)CC2)NCc1ccco1 (stereo not drawn) [BC20328] | + (“+” >25% increase in NMNAT2 luciferase activity at >25 μM.)
O=C(Cn1c2c(c3ccccc31)CC(C(=O)NCc1ccco1)CC2)NCc1cccnc1 (stereo not drawn) [BC20292] | ++ (“++” >25% increase in NMNAT2 luciferase activity at >1 μM ≤25 μM.)
Cc1cccc(CNC(=O)CCCc2cn(Cc3cccc(F)c3)c3ccccc23)c1 [BC20141] | + (“+” >25% increase in NMNAT2 luciferase activity at >25 μM.)
O=C1c2cccc3c2c(cn3Cc2cccc(F)c2)CCN1CCOc1ccccc1 [BC20341] | + (“+” >25% increase in NMNAT2 luciferase activity at >25 μM.)
Cc1ccc(C)c(Cn2c(C(F)F)c(CCC(=O)NCc3ccco3)c3ccccc32)c1 [BC20354] | + (“+” >25% increase in NMNAT2 luciferase activity at >25 μM.)
Cc1ccc(C)c(Cn2cc([C@H]3C[C@@H]3C(=O)NCCc3ccccc3)c3ccccc32)c1 (racemic) [BC20360] | ++ (“++” >25% increase in NMNAT2 luciferase activity at >1 μM ≤25 μM.)
Cc1ccc(C)c(Cn2c3c(c4ccccc42)CN(C(=O)NCCc2ccccc2)CC3)c1 [BC20254] | ++ (“++” >25% increase in NMNAT2 luciferase activity at >1 μM ≤25 μM.)
CCCCN(CC)Cc1ccc(CNC(=O)[C@H]2C[C@@H]2c2cn(Cc3cc(C)ccc3C)c3ccccc23)o1 (racemic) [BC20353] | ++ (“++” >25% increase in NMNAT2 luciferase activity at >1 μM ≤25 μM.)
COc1ccccc1CNC(=O)[C@H]1C[C@@H]1c1c(C)n(Cc2cc(C)ccc2C)c2ccccc12 (racemic) [BC20324] | + (“+” >25% increase in NMNAT2 luciferase activity at >25 μM.)
Cc1c(C)n(Cc2ccccc2F)c2ccc(C(=O)N3CCc4occc4C3)cc12 [BC20247] | + (“+” >25% increase in NMNAT2 luciferase activity at >25 μM.)
O=C(Cn1c2c(c3ccccc31)CC(C(=O)NCCc1ccccc1)CC2)NCc1ccco1 (stereo not drawn) [BC20262] | ++ (“++” >25% increase in NMNAT2 luciferase activity at >1 μM ≤25 μM.)
Cc1ccc(CNC(=O)C2CCCc3c2c2ccccc2n3Cc2cccc(F)c2)o1 (stereo not drawn) [BC20369] | ++ (“++” >25% increase in NMNAT2 luciferase activity at >1 μM ≤25 μM.)
Cc1cccc(Cn2cc(CCCC(=O)NCc3ccccc3F)c3ccccc32)c1 [BC20165] | +++ (“+++” >25% increase in NMNAT2 luciferase activity at ≤1 μM.)
Cc1c(C)n(Cc2ccccc2F)c2ccc(C(=O)NCC3CCCO3)cc12 (stereo not drawn) [BC20194] | + (“+” >25% increase in NMNAT2 luciferase activity at >25 μM.)
